Test results reported in patent EP4585599A1, “NITROGEN-CONTAINING FUSED RING COMPOUND, INTERMEDIATE THEREOF, PREPARATION METHOD THEREFOR AND USE THEREOF” (Hangzhou Synrx Therapeutics Biomedical Technology Co., Ltd., priority 2022, dated 2024).
“And” between values parts separate entries of the source, which are not always exact repeats. Equal entries are not always repeated. Where two headings read alike, the source gives them in different places.

Key:
[1] = target: T1, helicase domain of the Pol θ protein (Homo sapiens, UniProt O75417); experiment: Biochemical Activity Assay (ADP Glo Assay) of Pol θ inhibitor, ATPase activity
T1 construct: The helicase domain of the Pol θ protein was purified from insect protein expression system; made in house; host or cells: insect protein expression system
T1 sequence (O75417 102-554 limits assumed): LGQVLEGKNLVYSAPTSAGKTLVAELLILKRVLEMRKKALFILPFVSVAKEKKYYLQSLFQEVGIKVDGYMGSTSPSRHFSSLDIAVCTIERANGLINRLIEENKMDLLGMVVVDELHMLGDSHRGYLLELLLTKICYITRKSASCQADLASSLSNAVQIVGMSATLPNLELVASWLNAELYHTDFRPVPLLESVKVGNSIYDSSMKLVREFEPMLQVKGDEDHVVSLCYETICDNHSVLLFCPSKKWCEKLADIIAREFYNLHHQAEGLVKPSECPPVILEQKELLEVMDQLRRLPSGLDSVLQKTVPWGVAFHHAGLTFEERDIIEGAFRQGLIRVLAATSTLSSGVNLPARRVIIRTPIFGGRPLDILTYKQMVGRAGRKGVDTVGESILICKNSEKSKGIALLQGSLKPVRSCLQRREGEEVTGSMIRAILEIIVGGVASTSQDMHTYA

cells = settings: Homo sapiens, DLD-1, 240 h
[2] = ADP-Glo assay, ATPase activity of Pol θ helicase domain, ssDNA substrate, read-out: Biochemical assay IC50
[3] = ADP-Glo, ssDNA substrate, 60 min at room temperature, read-out: Biochemical assay IC50
[4] = read-out: Cell viability assay IC50 (nM), CTG assay, CellTiter Glo, read on Day 10, cell line not given
[5] = read-out: Cell viability assay IC50 (nM), CTG on Day 10, cell line not given (method: DLD1 and DLD1^-/- cells)
[6] = read-out: Biochemical assay IC50

SMILES	IC50 [1, 2]	IC50 [1, 3]	IC50 (cells; [4])	IC50 (cells; [5])	other results
COc1ccccc1-c1cnncc1C(=O)Nc1nc2ccc(-c3ccn[nH]3)nc2s1 [Comparative Example 2, reference compound]	307 nM	–	–	–	–
COc1cnc(Cl)cc1-c1cc(C)ncc1C(=O)Nc1nc2ccc(C3=CCC(O)CC3)nc2s1 (stereo not drawn) [Example 1, 2'-chloro-N-(5-(4-hydroxycyclohex-1-en-1-yl)thiazol[5,4-b]pyridin-2-yl)-5'-methoxy-6-methyl-[4,4'-bipyridine]-3-carboxamide]	–	–	–	–	IC50 ([1]; Biochemical assay IC50 (nM)): < 50 nM and 7.07 nM
COc1cnc(Cl)cc1-c1cc(C)ncc1C(=O)Nc1nc2cc(C3=CCC(O)CC3)cnc2s1 (stereo not drawn) [Example 2]	118 nM	50 to 200 nM	3160 nM	> 1000 nM	–
COc1cnc(Cl)cc1-c1cc(C)ncc1C(=O)Nc1nc2ncc(C3=CCC(O)CC3)cc2s1 (stereo not drawn) [Example 3]	2.51 nM	< 50 nM	13.6 nM	< 100 nM	–
COc1cnc(Cl)cc1-c1cnccc1C(=O)Nc1nc2ccc(C3=CCC(O)CC3)nc2s1 (stereo not drawn) [Example 4]	19.1 nM	< 50 nM	736 nM	500 to 1000 nM	–
COc1cccc(F)c1-c1cc(C)ncc1C(=O)Nc1nc2ccc(C3=CCC(O)CC3)nc2s1 (stereo not drawn) [Example 5]	81.5 nM	50 to 200 nM	153 nM	100 to 500 nM	–
COc1cnc(Cl)cc1-c1cncnc1C(=O)Nc1nc2ccc(C3=CCC(O)CC3)nc2s1 (stereo not drawn) [Example 6]	193 nM	50 to 200 nM	794 nM	500 to 1000 nM	–
Cc1cc(-c2c(F)cccc2OC(F)F)c(C(=O)Nc2nc3ccc(C4=CCC(O)CC4)nc3s2)cn1 (stereo not drawn) [Example 7]	26.4 nM	< 50 nM	73.6 nM	< 100 nM	–
COc1cnc(Cl)c(F)c1-c1cc(C)ncc1C(=O)Nc1nc2ncc(C3=CCC(O)CC3)cc2s1 (stereo not drawn) [Example 8]	1.09 nM	< 50 nM	24.2 nM	< 100 nM	–
COc1cnc(Cl)cc1-c1cc(C)ncc1C(=O)Nc1nc2ccc(C3=CCN(C)CC3)nc2s1 [Example 10]	33.1 nM	< 50 nM	446 nM	100 to 500 nM	–
COc1cnc(Cl)cc1-c1cc(C)ncc1C(=O)Nc1nc2ncc(C3=CCC(O)CC3)nc2s1 (stereo not drawn) [Example 12]	2.41 nM	< 50 nM	15.3 nM	< 100 nM	–
COc1cnc(Cl)cc1-c1cc(C)ncc1C(=O)Nc1nc2c(F)cc(C3=CCC(O)CC3)cc2s1 (stereo not drawn) [Example 13]	2.89 nM	< 50 nM	5.84 nM	< 100 nM	–
COc1cnc(Cl)cc1-c1cc(C)ncc1C(=O)Nc1nc2ncc(C3=CCOCC3)cc2s1 [Example 14]	2.74 nM	< 50 nM	31.6 nM	< 100 nM	–
COc1cnc(Cl)cc1-c1cc(C)ncc1C(=O)Nc1nc2ccc(C3=CCC(O)CC3)cc2s1 (stereo not drawn) [Example 15]	3.55 nM	< 50 nM	14.7 nM	< 100 nM	–
COc1cnc(Cl)cc1-c1cc(C)ncc1C(=O)Nc1nc2ncc(C3=CCNCC3)cc2s1 [Example 16]	13.5 nM	< 50 nM	2330 nM	> 1000 nM	–
COc1cnc(Cl)c(F)c1-c1cc(C)ncc1C(=O)Nc1nc2ncc(-c3ccn(C)n3)cc2s1 [Example 17]	8.57 nM	< 50 nM	103 nM	100 to 500 nM	–
COc1cnc(Cl)cc1-c1cc(C)ncc1C(=O)Nc1nc2ncc(-c3cnc4[nH]ccc4c3)cc2s1 [Example 19]	72.1 nM	50 to 200 nM	261 nM	100 to 500 nM	–
COc1cnc(Cl)cc1-c1cc(C)ncc1C(=O)Nc1nc2ccc(C3=CCC(O)CC3)c(F)c2s1 (stereo not drawn) [Example 20]	2.95 nM	< 50 nM	7.64 nM	< 100 nM	–
COc1cnc(Cl)cc1-c1cc(C)ncc1C(=O)Nc1nc2ncc(C3=CCC(N)CC3)cc2s1 (stereo not drawn) [Example 21]	3.48 nM	< 50 nM	76.4 nM	< 100 nM	–
COc1cnc(Cl)cc1-c1cc(C)ncc1C(=O)Nc1nc2ccc(C3=CCC(O)CC3)c(C#N)c2s1 (stereo not drawn) [Example 22]	115 nM	50 to 200 nM	1580 nM	> 1000 nM	–

SMILES	IC50 [1, 2]	IC50 [1, 3]	IC50 (cells; [4])	IC50 (cells; [5])	other results
COc1cnc(Cl)c(F)c1-c1cc(C)ncc1C(=O)Nc1nc2cccnc2s1 [Example 38, 2'-chloro-3'-fluoro-5'-methoxy-6-methyl-N-(thiazol[5,4-b]pyridin-2-yl)-[4,4'-bipyridine]-3-carboxamide]	–	–	–	–	IC50 ([1]; Biochemical assay IC50 (nM)): < 50 nM and 17.3 nM
COc1cnc(Cl)c(F)c1-c1cc(C)ncc1C(=O)Nc1nc2c(s1)CN(CC1CCOC1)CC2 (stereo not drawn) [Example 40, 2'-chloro-3'-fluoro-5'-methoxy-6-methyl-N-(5-((tetrahydrofuran-3-yl)methyl)-4,5,6,7-hexahydrothiazolo[5,4-c]pyridin-2-yl)-[4,4'-bipyridine]-3-carboxamide]	–	–	–	–	IC50 ([1]; Biochemical assay IC50 (nM)): 50 to 200 nM and 14.9 nM
COc1cnc(Cl)cc1-c1cc(C)ncc1C(=O)Nc1nc2ccc(N3CCN(C)CC3)nc2s1 [Example 43, 2'-chloro-5'-methoxy-6-methyl-N-(5-(4-methylpiperazin-1-yl)thiazol[5,4-b]pyridin-2-yl)-[4,4'-bipyridine]-3-carboxamide]	–	–	–	–	IC50 ([1]; Biochemical assay IC50 (nM)): 50 to 200 nM and 51.9 nM
COc1cnc(Cl)cc1-c1cc(C)ncc1C(=O)Nc1nc2ccc(-c3ccc(Cl)cn3)nc2s1 [Example 44, 2'-chloro-N-(5-(5-chloropyridin-2-yl)thiazol[5,4-b]pyridin-2-yl)-5'-methoxy-6-methyl-[4, 4'-bipyridine]-3-carboxamide]	–	–	–	–	IC50 ([1]; Biochemical assay IC50 (nM)): < 50 nM and 5.81 nM
COc1cnc(Cl)cc1-c1cc(C)ncc1C(=O)Nc1nc2c(s1)CN(c1ccc(Cl)cn1)CC2 [Example 92, 2'-chloro-N-(5-(5-chloropyridin-2-yl)-4,5,6,7-tetrahydrothiazol[5,4-c]pyridin-2-)-5'-methoxy-6-methyl-[4,4'-bipyridine]-3-carboxamide]	–	–	–	–	IC50 ([1]; Biochemical assay IC50 (nM)): 50 to 200 nM and 59.9 nM
[2H]C1(O)CCN(c2ccc3nc(NC(=O)c4cnc(C)cc4-c4cc(Cl)ncc4OC)sc3n2)CC1 [Example 112, 2'-chloro-N-(5-(4-hydroxypiperidin-1-yl-4-deuterium)thiazol[5,4-b]pyridin-2-yl)-5'-met hoxy-6-methyl-[4,4'-bipyridine]-3-carboxamide]	–	–	–	–	IC50 ([1]; Biochemical assay IC50 (nM), ADP-Glo assay, ATPase activity of Pol θ helicase domain, ssDNA substrate): 10 nM
COc1cnc(Cl)cc1-c1cc(C)ncc1C(=O)Nc1nc2cnc(C3=CC[C@H](O)CC3)cc2s1 [Example 114, (R)-2'-chloro-N-(6-(4-hydroxycyclohex-1-en-1-yl)thiazolo[4,5-c]pyridin-2-yl)-5'-methoxy-6-methyl-[4.4'-bipyridine]-3-carboxamide]	–	–	–	–	IC50 ([1]; Biochemical assay IC50 (nM)): < 50 nM and 3.98 nM
COc1cnc(Cl)cc1-c1cc(C)ncc1C(=O)Nc1nc2c(C(=O)O)cc(-c3c(C)cnn3C)cc2s1 [Example 164]	8.32 nM	–	–	–	–
COc1cnc(Cl)cc1-c1cc(C)ncc1C(=O)Nc1nc2cnc(-c3c(F)cnn3CCO)cc2s1 [Example 168]	–	–	4.46 nM	–	–
COc1cnc(C(F)F)cc1-c1cc(C)ncc1C(=O)Nc1nc2cnc(-c3c(F)cnn3C)cc2s1 [Example 173]	2.93 nM	–	–	–	–
COc1cnc(C(F)F)cc1-c1cc(C)ncc1C(=O)Nc1nc2cnc(-c3c(C)cnn3C)cc2s1 [Example 174]	2.93 nM	–	–	–	–
COc1cnc(Cl)cc1-c1cc(C)ncc1C(=O)Nc1nc2cnc(-c3ncon3)cc2s1 [Example 181, N-(6-(1,2,4-oxadiazol-3-yl)thiazolo[4,5-c]pyridin-2-yl)-2'-chloro-5'-methoxy-6-methyl-[4,4'-bipyridine]-3-carboxamide]	6.71 nM	–	–	–	–
COc1cnc(C(F)F)cc1-c1cc(N2CCN(C)C3(CC3)C2=O)ncc1C(=O)Nc1nc2cnc(-c3c(C)nnn3C)cc2s1 [Example 197]	–	–	–	–	IC50 [1, 6]: 8.57 nM
COc1cnc(Cl)cc1-c1cc(C)ncc1C(=O)Nc1nc2cnc(-c3c(C)nnn3C)c(C#N)c2s1 [Example 228, 2'-chloro-N-(7-cyano-6-(1,4-dimethyl-1H-1,2,3-triazol-5-yl)thiazolo[4,5-c]pyridin-2-yl)-5'-methoxy-6-methyl-[4,4'-bipyridine]-3-carboxamide]	111 nM	–	–	–	–
COc1cnc(Cl)cc1-c1cc(C)ncc1C(=O)Nc1nc2cnc(-c3c(C)nnn3C)c(OC)c2s1 [Example 229, 2'-chloro-N-(6-(1,4-dimethyl-1H-1,2,3-triazol-5-yl)-7-methoxythiazolo[4,5-c]pyridin-2-yl)-5'-methoxy-6-methyl-[4,4'-bipyridine]-3-carboxamide]	36.7 nM	–	–	–	–
[2H]C([2H])([2H])Oc1cnc(Cl)cc1-c1cc(C)ncc1C(=O)Nc1nc2cnc(-c3c(C)nnn3C)c(F)c2s1 [Example 230, 2'-chloro-N-(6-(1,4-dimethyl-1H-1,2,3-triazol-5-yl)-7-fluorothiazolo[4,5-c]pyridin-2-yl)-5'-(methoxy-d3)-6-methyl-[4,4'-bipyridine]-3-carboxamide]	2.84 nM	–	–	–	–
[2H]C([2H])([2H])Oc1cnc(Cl)cc1-c1cc(C([2H])([2H])[2H])ncc1C(=O)Nc1nc2cnc(-c3c(C)nnn3C)c(F)c2s1 [Example 231, 2'-chloro-N-(6-(1,4-dimethyl-1H-1,2,3-triazol-5-yl)-7-fluorothiazolo[4,5-c]pyridin-2-yl)-5'-(methoxy-d3)-6-(methyl-d3)-[4,4'-bipyridine]-3-carboxamide]	3.08 nM	–	–	–	–
COc1cnc(Cl)cc1-c1cc(C)ncc1C(=O)Nc1nc2nc(F)c(-c3c(C)nnn3C)cc2s1 [Example 232]	–	–	–	–	IC50 [1, 6]: 2.51 nM
COc1cnc(Cl)cc1-c1cc(C)ncc1C(=O)Nc1nc2cnc(-c3c(C)nnn3C)c(C)c2s1 [Example 233, 2'-chloro-N-(6-(1,4-dimethyl-1H-1,2,3-triazol-5-yl)-7-methylthiazolo[4,5-c]pyridin-2-yl) -5'-methoxy-6-methyl-[4,4'-bipyridine]-3-carboxamide]	8.58 nM	–	–	–	–
